Data set [1] concerns VSMC wild-type cells. Put plainly: Internalization in wild-type vascular smooth muscle cells. In kind it is cell-based, mice. The following applies: 1 μM, 1 hr, 37° C. As to the method: (§1) Having shown that cypate-GRD preferentially binds to β3 integrin in ABI-positive cells, it was hypothesized that it would not internalize in β3 knockout cells. Vascular smooth muscle cells (VSMCs) from the aortas of β3^−/−apoE^−/− and β3^+/+apoE^−/− mice were provided by Dr. Clay F. Semenkovich (Washington University Medical School in St. Louis, Mo.). VSMCs were maintained at 37° C. in humidified atmosphere containing 5% CO2 in Dulbecco's modified Eagle's medium (DMEM) containing 10% fetal bovine serum, 4 mmol/L L-glutamine, 1 mM sodium pyruvate, 100 U/ml penicillin, 0.25 μg/ml amphotericin, 100 μg/ml streptomycin. The internalization of cypate-GRD and cyclic cypate-RGD were compared in β3 knockout and wild-type VSMC cells, essentially as described above.

In data set [2] the test system is αv, β3, αvβ3 and αIIBβ3 integrins in A549 cells. Put plainly: Immunostaining of integrins in treated and untreated cells. In kind it is cell-based, human. The following applies: relative to PBS-treated cells. As to the method: To confirm the receptors that mediate internalization of cypate-GRD in A549 cells, the levels of αv, αIIb, β3, αvβ3, and αIIBβ3 in treated and untreated cells were assessed by immunostaining. Cells were grown on Lab-Tek slides and fixed in 3% paraformaldehyde in PBS for 30 min. After washing three times for 5 min each in PBS, the cells were blocked to mask nonspecific binding sites with PBS containing 1% normal goat serum (blocking solution) for 1 h. Primary antibodies of mouse anti-human αv or β3 integrin antibodies (Chemicon International, Temecula, Calif.) or antihuman αIIBβ3 (GeneTex, Inc., South Bend, Ind.) diluted 1:500 (v/v) in blocking solution were added to each well and incubated overnight at 4° C. After washing three times for 10 min each in PBS, cells were incubated for 1 h with diluted biotinylated-anti-mouse IgG antibody in blocking solution. After washing, antigens were detected with avidin-horseradish peroxidase conjugate and diamino benzidine (Vector Laboratories, Burlingame, Calif.). Slides were counterstained with Mayers Hematoxylin, and the cover slips were mounted for microscopic examination.

In data set [3] the test system is β3 knockout VSMC cells. Put plainly: Internalization in integrin β3 knock-out vascular smooth muscle cells. The following applies: 1 μM, 1 hr, 37° C. In kind it is cell-based, mice. As to the method:
as §1

Data set [4] has as its target integrin αvβ3 protein (purified ABI) (Homo sapiens, UniProt P05106+P06756). Put plainly: Receptor binding assay with 125I-echistatin (Example 3). The conditions noted are these: Table 4, 125I-echistatin tracer.
Method: A 96-well filtration plate was blocked with 0.1% polyethylenimine blocking solution by incubation overnight at 4° C. ^125I-Echistatin (50 nmol/L) was added to the binding buffer (50 mM Tris-HCl, pH 7.4, 100 mM NaCl, 2 mM CaCl2, 1 mM MgCl2, 1 mM MnCl2, 0.1% BSA) with integrin αvβ3 protein (50 ng/well in 96-well filtration plate) and ligands. The concentration range of ligand was between 0.01 and 100 μM. The mixture was incubated for 2 h by shaking at room temperature. Each well was washed three times with 0.25 mL of ice-cold binding buffer and dried. The filters were removed using a punch apparatus and counted in a gamma counter.
For data set [5], the system named is A549 cells. Put plainly: CyQuant cytotoxicity and proliferation assay. The following applies: 48 hours. The data set is classed as cell-based, human. The protocol: Cells were seeded at 2.5×10^4 cells/well and grown in 96 well plates in the presence of 0−1.5×10^−5 M cypate conjugated peptides for 24 or 48 hours. Cell proliferation was measured using the CyQuant proliferation assay from Molecular Probes (Eugene, Oreg.) per the manufacturer's protocol. Briefly, after incubation the microplate was inverted to remove the media and frozen at −70° C. overnight. The microplate was thawed at room temperature and 200 μL of the CyQuant GR dye/cell-lysis buffer was added to each well. […]
Because the Cyquant assay is based on the adherence of a dye to nucleic acids, the assay is a measure of both proliferative and cytotoxic effects.

Data set [6] concerns A549 cell membranes (ABI). Put plainly: ABI binding assay using A549 cell membranes. The conditions noted are these: compared with purified ABI. Set-up: species or system human. The text has this: [SEQ ID NO:1] as the target receptor, tracer, and reference standard, respectively. Echistatin is a polypeptide that binds purified ABI specifically and irreversibly and the radiolabeled analogue is used widely in ABI binding assays. […] Because of the rearrangement of the RGD peptide sequence, the low binding of cypate-GRD peptide to ABI was expected.

Data set [7] deals with A549 cells. Put plainly: MTT cytotoxicity assay. In kind it is cell-based, human. The following applies: up to 100 μM solution in 20% aqueous DMSO, 24 h. The protocol: Cytotoxicity assays were performed using the 3-(4,5-dimethylthiazol-2-yl)-2,5-diphenyltetrazolium bromide (MTT) based in vitro toxicology assay kit (Sigma-Aldrich, St. Louis, Mo.) per the manufacturer's protocol. Briefly, A549 cells were grown in 96 well plates to 75% confluence in phenol red free Dulbecco's Modified Eagle's Medium supplemented with 10% fetal calf serum, 100 units/mL penicillin and 100 units/mL streptomycin. A concentration range (0-125 μM) of the compound to be tested was added to each well in a final volume of 100 μL/well and the cells were incubated for 24 h at 37° C. in 5% CO2. After incubation, the medium was removed and replaced with 100 μL/well phenol red free medium. Absorbances at 570 nm and 690 nm were measured. MTT (10 μL) was added to each well and the cells were incubated for 2 h. […] Absorbance at 570 nm and 690 nm were measured. The Δ570 and Δ690 were determined by taking the difference of the absorbances before and after the addition of MTT. The percent of viable cells, B, was determined according to the formula:
[formula] where λΔ570 was the absorbance of formazan crystals at 570 nm and λΔ690 was background at 690 nm.
The conventional MTT protocol typically involves background subtraction at 690 nm from the absorbance at 570 nm. […] To circumvent this problem, the background absorbance at 690 nm was adjusted by running parallel experiments with and without MTT. […]
A general note: Formazan colour is commonly taken as a measure of viable cells.

Entries after “also recorded” stand apart in the source; their conditions may differ. Where a SMILES comes first, the peptide text is derived from it.

A word on the IC50: it is the concentration that inhibits the measured activity by half. Low readings indicate higher potency, high ones lower potency.

Sequence of integrin αvβ3 protein (purified ABI) (P06756 31-889 limits assumed): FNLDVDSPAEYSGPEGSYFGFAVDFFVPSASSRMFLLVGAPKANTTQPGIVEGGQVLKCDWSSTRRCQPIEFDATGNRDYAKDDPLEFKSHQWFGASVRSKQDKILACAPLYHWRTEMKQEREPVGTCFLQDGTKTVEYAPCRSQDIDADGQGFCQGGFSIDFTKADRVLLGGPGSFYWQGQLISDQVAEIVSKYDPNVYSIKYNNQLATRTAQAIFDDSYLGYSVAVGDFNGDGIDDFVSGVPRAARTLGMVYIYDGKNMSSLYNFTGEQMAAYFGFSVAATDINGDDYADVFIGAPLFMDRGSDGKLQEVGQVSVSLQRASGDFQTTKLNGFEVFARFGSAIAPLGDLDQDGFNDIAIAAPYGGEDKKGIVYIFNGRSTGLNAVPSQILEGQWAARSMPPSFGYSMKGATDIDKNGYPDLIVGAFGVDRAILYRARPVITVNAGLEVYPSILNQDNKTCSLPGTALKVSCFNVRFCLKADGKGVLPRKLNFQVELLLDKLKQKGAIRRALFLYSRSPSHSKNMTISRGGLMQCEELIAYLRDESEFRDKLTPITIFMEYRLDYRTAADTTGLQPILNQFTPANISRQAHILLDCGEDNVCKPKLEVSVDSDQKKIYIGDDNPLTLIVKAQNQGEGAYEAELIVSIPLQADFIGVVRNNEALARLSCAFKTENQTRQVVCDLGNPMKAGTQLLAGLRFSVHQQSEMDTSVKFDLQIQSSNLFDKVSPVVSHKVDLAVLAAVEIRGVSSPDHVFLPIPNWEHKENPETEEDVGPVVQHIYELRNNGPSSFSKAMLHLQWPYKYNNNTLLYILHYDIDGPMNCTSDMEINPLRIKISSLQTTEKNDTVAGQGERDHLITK
Sequence of integrin αvβ3 protein (purified ABI) (P06756 891-1048 partner limits assumed): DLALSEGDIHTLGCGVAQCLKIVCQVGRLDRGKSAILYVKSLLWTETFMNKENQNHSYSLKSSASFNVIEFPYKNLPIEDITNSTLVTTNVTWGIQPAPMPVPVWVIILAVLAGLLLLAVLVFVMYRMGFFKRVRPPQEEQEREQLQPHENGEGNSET
Sequence of integrin αvβ3 protein (purified ABI) (P05106 27-788): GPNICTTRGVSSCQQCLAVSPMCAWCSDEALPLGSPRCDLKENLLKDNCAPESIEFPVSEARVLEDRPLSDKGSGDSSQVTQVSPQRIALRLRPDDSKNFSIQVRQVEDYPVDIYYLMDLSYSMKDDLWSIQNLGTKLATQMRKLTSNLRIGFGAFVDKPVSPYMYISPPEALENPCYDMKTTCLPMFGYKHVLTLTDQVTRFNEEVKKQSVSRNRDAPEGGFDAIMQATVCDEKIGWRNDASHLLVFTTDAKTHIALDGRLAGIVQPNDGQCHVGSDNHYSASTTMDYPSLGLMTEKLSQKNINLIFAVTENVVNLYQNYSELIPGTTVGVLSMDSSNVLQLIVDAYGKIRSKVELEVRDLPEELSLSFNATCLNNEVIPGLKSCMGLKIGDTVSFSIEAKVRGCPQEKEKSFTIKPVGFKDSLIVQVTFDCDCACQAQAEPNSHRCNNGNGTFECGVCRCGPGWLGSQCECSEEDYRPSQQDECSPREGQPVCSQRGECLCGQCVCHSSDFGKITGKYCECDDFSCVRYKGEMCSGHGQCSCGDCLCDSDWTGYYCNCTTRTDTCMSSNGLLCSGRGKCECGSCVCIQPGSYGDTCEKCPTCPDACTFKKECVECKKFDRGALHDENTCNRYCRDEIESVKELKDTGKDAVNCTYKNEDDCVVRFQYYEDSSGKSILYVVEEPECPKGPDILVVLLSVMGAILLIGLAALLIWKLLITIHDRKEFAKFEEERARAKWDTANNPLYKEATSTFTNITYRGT

As to `CC1(C)C(/C=C/C=C/C=C/C=C2/N(CCC(=O)NCC(=O)N[C@@H](CCCNC(=N)N)C(=O)N[C@@H](CC(=O)O)C(=O)N[C@@H](CO)C(=O)N3CCC[C@H]3C(=O)N[C@@H](CCCCN)C(=O)O)c3ccc4ccccc4c3C2(C)C)=[N+](CCC(=O)O)c2ccc3ccccc3c21` [Cyp-GRD, Cypate-GRDSPK] (HELM PEPTIDE1{[CC1(C)C(/C=C/C=C/C=C/C=C2/N(CCC(=O)[*:2])c3ccc4ccccc4c3C2(C)C)=[N+](CCC(=O)O)c2ccc3ccccc3c21].G.R.D.S.P.K}$$$$V2.0), in data set [1], the “internalization in VSMC wild-type cells” value is given as “internalized”. For the same compound, the “staining of A549 cells with anti-αv, anti-β3, anti-αvβ3 and anti-αIIBβ3 antibodies after preincubation” value in data set [2] is “reduced staining”. The “internalization in β3 knockout cells” value in data set [3] is recorded as “not observed”. The compound also came in with an IC50 in data set [4] greater than 100 µM. For the same compound, the “cytotoxicity (CyQuant), longer treatment” value in data set [5] is “not”. The “ABI binding affinity using A549 cell membranes” value in data set [6] is “No improvement in the ABI binding affinity”. Further, in data set [7], the “cell proliferation or cytotoxicity (percent of viable cells, MTT)” value is “did not induce cell proliferation or cytotoxicity; also recorded: not cytotoxic”.
